Calls of active or inactive are those of the source.
Assays:
[1] = molecular target: Luciferin 4-monooxygenase (Photinus pyralis, UniProt P08659); experiment: firefly luciferase enzyme inhibitors, dose response, biochemical, luminescence (AID 1891)
[2] = molecular target: T1, Nuclear receptor subfamily 0 group B member 1 (Homo sapiens, UniProt P51843); format: functional, cell-based;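 further: HEK293T cells transfected with SF-1 and DAX-1 plus StAR promoter luciferase reporter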
T1 sequence (P51843 whole entry): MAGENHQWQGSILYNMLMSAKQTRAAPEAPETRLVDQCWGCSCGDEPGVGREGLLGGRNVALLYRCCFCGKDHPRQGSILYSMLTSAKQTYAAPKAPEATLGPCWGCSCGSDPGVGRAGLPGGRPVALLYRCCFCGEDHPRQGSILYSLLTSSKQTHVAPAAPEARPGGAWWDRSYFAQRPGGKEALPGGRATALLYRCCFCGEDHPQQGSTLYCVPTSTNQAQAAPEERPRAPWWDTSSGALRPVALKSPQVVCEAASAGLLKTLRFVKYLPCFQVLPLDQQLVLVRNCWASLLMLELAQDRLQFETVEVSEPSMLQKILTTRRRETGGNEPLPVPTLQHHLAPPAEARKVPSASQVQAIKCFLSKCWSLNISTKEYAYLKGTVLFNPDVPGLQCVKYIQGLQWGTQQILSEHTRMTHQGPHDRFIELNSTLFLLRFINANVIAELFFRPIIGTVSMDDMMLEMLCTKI

HEK293 = experiment: inhibitors of LMP1-driven NF-kB reporter, dose response, cell-based, HEK293, luciferase, cherry-pick (AID 588343); format: functional; conditions: Homo sapiens
[3] = Luminescence Cell-Based Dose Confirmation HTS to Identify Inhibitors of Platelet Dense Granule Release. [Related pubchem assays: 1663 (Primary HTS), 1678 (Summary of Project)]; format: functional
[4] = HepG2 cell cytotoxicity, dose response, cytotoxicity control, ATP luminescence, cherry-pick, activator set 2 (AID 1053143); format: functional, cell-based
cells [5] = format: functional, cell-based
cells [6] = experiment: cells
[7] = molecular target: T2, Oxysterols receptor LXR-beta (Homo sapiens, UniProt P55055); format: functional, cell-based;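 further: Cell-based luminescence dose-response assay of agonist activity at LXR, run as a confirmatory counterscreen to a daf-12 agonist screen; HEK293 cells with Gal4-LXR fusion and GAL4-driven luciferase reporter; agonist potency from rising luciferase signal of a Gal4-LXR reporter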
T2 sequence (P55055 whole entry): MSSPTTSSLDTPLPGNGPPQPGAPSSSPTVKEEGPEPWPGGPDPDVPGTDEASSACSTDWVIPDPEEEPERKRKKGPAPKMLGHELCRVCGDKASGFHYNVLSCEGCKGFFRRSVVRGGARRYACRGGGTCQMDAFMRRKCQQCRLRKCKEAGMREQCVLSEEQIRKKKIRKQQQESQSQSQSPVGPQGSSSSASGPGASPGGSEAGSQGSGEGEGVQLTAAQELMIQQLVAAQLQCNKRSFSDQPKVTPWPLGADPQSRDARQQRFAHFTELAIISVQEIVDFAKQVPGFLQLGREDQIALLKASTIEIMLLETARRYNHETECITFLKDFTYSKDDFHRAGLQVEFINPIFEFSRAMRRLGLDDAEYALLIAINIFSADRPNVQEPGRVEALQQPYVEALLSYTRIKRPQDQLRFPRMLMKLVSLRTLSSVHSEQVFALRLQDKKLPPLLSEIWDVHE

[8] = molecular target: 1-phosphatidylinositol 4,5-bisphosphate phosphodiesterase beta-3 (Homo sapiens, UniProt Q01970); experiment: Fluorescence-based biochemical high throughput dose response assay to identify inhibitors of phospholipase C isozymes (PLC-B3).
Sequence of 1-phosphatidylinositol 4,5-bisphosphate phosphodiesterase beta-3 (Q01970 whole entry): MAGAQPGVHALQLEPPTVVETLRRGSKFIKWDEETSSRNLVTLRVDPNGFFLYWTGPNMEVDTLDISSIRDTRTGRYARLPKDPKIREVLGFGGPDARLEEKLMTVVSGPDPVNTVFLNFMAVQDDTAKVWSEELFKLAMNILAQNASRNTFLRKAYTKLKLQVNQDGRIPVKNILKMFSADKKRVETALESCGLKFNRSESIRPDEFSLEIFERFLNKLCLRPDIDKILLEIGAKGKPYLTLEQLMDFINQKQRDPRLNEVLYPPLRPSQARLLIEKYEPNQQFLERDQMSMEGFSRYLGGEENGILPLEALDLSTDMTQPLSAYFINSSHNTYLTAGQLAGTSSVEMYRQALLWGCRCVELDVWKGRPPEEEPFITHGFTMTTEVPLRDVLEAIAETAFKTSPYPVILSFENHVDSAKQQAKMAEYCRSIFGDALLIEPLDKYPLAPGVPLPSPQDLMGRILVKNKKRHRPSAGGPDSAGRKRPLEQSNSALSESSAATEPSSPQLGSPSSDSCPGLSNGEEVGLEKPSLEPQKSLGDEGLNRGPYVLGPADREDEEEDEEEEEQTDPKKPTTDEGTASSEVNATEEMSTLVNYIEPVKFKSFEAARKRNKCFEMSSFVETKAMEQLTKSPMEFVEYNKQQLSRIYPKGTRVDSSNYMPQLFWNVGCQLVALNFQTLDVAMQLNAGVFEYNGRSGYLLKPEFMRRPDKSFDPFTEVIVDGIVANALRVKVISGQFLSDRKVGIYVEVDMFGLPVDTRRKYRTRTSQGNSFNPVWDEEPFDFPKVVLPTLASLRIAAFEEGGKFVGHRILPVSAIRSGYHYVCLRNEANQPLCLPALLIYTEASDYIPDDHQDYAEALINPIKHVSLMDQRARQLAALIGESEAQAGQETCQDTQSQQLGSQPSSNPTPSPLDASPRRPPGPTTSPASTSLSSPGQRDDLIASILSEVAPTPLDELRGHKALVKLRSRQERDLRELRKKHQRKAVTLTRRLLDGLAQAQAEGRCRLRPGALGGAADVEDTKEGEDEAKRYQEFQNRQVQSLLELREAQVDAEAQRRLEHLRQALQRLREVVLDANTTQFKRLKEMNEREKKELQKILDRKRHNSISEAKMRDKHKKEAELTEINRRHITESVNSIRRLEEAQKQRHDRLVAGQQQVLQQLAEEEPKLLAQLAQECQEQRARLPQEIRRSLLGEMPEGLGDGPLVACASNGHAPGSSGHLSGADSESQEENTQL

[9] = molecular target: T3, Zinc finger protein mex-5 (Caenorhabditis elegans, UniProt Q9XUB2); experiment: MEX-5/TCR-2 RNA interaction inhibitors, dose response, biochemical, C. elegans, fluorescence polarization (AID 1960)
T3 sequence (Q9XUB2 whole entry): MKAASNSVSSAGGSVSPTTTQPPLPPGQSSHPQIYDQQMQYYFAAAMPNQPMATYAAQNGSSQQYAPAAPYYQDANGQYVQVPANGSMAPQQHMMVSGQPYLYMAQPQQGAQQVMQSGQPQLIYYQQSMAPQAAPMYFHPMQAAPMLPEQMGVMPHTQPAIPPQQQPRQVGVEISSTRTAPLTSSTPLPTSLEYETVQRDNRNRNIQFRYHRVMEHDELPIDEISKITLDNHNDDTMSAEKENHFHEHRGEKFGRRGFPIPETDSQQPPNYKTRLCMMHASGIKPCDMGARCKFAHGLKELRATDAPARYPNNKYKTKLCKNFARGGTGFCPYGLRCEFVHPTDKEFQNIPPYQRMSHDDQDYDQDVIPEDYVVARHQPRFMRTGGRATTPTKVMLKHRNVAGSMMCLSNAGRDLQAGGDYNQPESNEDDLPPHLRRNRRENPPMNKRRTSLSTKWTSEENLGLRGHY

[10] = molecular target: 1-phosphatidylinositol 4,5-bisphosphate phosphodiesterase gamma-1 (Homo sapiens, UniProt P19174); experiment: Counterscreen for inhibitors of phospholipase C isozymes (PLC-B3): Fluorescence-based biochemical high throughput dose response assay to identify inhibitors of phospholipase C isozymes (PLC-gamma1).
Sequence of 1-phosphatidylinositol 4,5-bisphosphate phosphodiesterase gamma-1 (P19174 whole entry, the tested form may be a part): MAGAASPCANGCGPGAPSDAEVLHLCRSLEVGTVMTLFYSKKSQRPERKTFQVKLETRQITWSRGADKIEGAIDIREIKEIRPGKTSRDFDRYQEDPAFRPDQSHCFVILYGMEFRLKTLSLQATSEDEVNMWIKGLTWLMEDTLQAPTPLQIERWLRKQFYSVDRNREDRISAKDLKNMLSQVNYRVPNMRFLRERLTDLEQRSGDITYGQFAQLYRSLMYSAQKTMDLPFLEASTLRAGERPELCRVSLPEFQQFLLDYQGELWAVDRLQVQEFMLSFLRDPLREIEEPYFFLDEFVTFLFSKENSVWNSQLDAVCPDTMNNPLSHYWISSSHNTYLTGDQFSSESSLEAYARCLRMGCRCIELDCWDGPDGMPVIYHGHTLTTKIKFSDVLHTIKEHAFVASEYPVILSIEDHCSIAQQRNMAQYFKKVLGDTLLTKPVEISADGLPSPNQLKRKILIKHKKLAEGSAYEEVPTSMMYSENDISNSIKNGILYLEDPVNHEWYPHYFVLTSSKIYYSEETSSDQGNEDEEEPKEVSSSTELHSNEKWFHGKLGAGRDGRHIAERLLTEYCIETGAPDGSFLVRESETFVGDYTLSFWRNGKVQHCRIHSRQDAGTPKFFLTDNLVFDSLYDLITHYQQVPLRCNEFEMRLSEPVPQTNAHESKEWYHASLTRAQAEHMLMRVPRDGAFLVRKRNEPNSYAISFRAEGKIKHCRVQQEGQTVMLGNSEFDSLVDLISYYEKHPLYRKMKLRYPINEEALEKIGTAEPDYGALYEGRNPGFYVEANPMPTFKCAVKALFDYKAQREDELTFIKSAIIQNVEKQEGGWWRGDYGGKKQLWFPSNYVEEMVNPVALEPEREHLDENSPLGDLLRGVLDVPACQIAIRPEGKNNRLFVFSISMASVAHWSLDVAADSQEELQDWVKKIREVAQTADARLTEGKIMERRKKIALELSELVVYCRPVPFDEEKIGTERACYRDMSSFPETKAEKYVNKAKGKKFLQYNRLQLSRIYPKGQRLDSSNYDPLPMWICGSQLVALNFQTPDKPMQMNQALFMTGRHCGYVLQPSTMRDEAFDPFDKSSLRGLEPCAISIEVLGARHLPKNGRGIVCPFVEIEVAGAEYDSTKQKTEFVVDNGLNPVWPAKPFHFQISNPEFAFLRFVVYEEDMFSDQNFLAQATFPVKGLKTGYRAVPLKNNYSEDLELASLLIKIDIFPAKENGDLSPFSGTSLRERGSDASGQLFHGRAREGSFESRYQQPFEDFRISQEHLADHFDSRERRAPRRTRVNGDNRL

[11] = molecular target: T4, RNA-binding protein pos-1 (Caenorhabditis elegans, UniProt G5EF15); experiment: inhibitors of POS-1/mex-3 RNA binding, dose response, biochemical, fluorescence polarization (AID 1964);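 further: purified POS-1 fused to maltose binding protein made in E. coli; potency of compounds blocking POS-1 binding to fluorescent RNA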
T4 sequence (G5EF15 whole entry): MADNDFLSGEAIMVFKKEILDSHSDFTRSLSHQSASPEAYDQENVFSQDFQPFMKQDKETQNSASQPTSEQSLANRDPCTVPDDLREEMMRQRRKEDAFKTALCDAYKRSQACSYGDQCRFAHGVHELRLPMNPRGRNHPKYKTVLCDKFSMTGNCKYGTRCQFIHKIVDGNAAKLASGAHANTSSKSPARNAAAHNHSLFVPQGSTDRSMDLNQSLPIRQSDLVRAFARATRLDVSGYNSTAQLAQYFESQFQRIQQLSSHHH

INS1 = experiment: beta cell apoptosis inhibitors, cytokine rescue, dose response, luminescence, retest (AID 449756); format: functional, cell-based; conditions: Rattus norvegicus;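 further: cell death triggered by IL-1 beta plus TNF-alpha plus IFN-gamma mixture; protective hits raise ATP signal compared with cytokine alone wells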
[12] = LGR2 antagonists, dose response, cell-based, HEK293, CRE-luciferase reporter, cherry pick, set 2 (AID 743343); format: functional;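 further: transfected cells were stimulated with diluted bursicon conditioned medium after compound addition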
BJ [13] = experiment: cells; format: functional, cell-based; conditions: Homo sapiens
[14] = A549 cell cytotoxicity, dose response, cytotoxicity control, plate reader, cherry-pick, antagonist series (AID 743412); format: functional, cell-based
BJ [15] = experiment: cytotoxicity toward BJ-TERT fibroblasts, dose response, cell-based, RAS-independent, luminescence (AID 1933); format: functional; conditions: Homo sapiens
BJ [16] = experiment: cytotoxicity toward BJ-TERT-LT-ST fibroblasts, dose response, cell-based, RAS-independent, luminescence (AID 1935); format: functional; conditions: Homo sapiens;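 further: BJ fibroblasts immortalized with TERT plus LT and ST oncogenes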
[17] = MC4R antagonists, dose response, counter-screen for LGR2 antagonist project, cell-based, plate reader, cherry pick (AID 743444); format: functional;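 further: transfected HEK 293 cells stimulated with alpha-MSH peptide; potency of inhibitors of the alpha-MSH evoked signal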
[18] = molecular target: Endoplasmic reticulum aminopeptidase 1 (Homo sapiens, UniProt Q9NZ08); experiment: ERAP1 aminopeptidase inhibitors, dose response, biochemical, cherry-pick, set 2, plate reader (AID 743314)
Sequence of Endoplasmic reticulum aminopeptidase 1 (Q9NZ08 whole entry): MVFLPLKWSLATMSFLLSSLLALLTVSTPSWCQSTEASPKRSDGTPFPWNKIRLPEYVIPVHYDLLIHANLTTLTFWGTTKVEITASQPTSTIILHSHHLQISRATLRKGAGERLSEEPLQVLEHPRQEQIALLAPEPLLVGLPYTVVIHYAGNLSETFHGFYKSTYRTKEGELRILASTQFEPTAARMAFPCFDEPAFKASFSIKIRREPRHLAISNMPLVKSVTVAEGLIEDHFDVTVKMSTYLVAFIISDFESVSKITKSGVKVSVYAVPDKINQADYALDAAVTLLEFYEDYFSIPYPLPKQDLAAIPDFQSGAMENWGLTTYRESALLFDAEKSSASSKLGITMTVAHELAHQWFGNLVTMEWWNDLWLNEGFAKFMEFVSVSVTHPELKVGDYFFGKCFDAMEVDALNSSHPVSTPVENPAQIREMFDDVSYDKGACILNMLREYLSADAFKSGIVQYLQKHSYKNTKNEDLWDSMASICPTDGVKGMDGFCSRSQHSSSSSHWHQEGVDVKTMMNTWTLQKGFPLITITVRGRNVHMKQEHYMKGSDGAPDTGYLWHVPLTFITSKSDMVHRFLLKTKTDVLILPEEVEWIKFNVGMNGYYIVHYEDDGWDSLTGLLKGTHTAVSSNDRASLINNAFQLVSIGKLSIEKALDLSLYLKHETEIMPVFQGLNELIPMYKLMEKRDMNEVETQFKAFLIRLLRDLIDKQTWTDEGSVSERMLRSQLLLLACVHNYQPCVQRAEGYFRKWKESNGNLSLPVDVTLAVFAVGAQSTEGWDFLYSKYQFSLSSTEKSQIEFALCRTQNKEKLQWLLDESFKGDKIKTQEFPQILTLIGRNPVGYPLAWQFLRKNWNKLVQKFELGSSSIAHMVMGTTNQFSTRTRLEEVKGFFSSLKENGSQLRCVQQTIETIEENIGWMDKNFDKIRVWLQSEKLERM

[19] = HEK293 cell cytotoxicity, dose response, cytotoxicity control, plate reader, cherry-picked samples (AID 743446); format: functional, cell-based
[20] = HepG2 cell cytotoxicity, dose response, cytotoxicity control, plate reader, cherry-pick, antagonist series (AID 743416); format: functional, cell-based
[21] = cytotoxicity toward DRD oncogenic fibroblasts, dose response, cell-based, non-viral oncogenic, luminescence (AID 1934); format: functional; conditions: Homo sapiens
Protein skinhead-1 = molecular target: T5, Protein skinhead-1 (Caenorhabditis elegans, UniProt P34707); format: functional
T5 sequence (P34707 whole entry): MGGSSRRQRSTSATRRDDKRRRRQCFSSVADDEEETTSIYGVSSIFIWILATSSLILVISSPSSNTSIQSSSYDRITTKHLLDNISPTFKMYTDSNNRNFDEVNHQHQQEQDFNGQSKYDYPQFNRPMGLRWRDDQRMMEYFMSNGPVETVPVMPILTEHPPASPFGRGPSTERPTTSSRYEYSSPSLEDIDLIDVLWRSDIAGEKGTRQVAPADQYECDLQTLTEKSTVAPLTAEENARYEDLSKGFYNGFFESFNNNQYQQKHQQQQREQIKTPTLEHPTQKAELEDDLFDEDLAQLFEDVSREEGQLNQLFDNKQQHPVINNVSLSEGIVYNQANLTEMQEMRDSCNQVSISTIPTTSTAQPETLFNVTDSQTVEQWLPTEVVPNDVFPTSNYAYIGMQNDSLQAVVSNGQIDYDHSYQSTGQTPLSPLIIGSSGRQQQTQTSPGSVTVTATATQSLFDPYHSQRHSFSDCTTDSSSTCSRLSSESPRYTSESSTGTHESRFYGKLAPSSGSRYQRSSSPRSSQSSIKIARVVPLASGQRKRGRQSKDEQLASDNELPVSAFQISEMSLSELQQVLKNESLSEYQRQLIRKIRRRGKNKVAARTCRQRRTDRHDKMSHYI

[22] = Luminescence Cell-Based Dose Response HTS to Identify Activators of Luciferase Translation or Activity in H4 […] Cells. [Related pubchem assays: 1829 (Project Summary), 1814 (Primary HTS)]; format: functional
H4 = experiment: Luminescence Cell-Based Dose Response HTS to Identify Activators of 5'UTR Stem-Loop Driven Prion Protein mRNA Translation in H4 Neuroglioblastoma Cells. [Related pubchem assays: 1829 (Project Summary), 1814 (Primary HTS)]; format: functional; conditions: Homo sapiens
cells [23] = format: functional, cell-based; remark: listed apart in the source
cells [24] = format: functional, cell-based; remark: listed apart in the source
[25] = reduction of Shn3 3'UTR firefly luciferase signal, dose response, Schnurri-3 inhibitor project, cell-based, Clone20 osteoblasts, cherry-pick, set 2 (AID 720490); format: functional;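 further: actives lower the luminescence signal as inhibitors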
Jurkat = experiment: antigen receptor-induced NF-kB inhibitors, dose response, Jurkat, luciferase reporter, luminescence, B- and T-cell (AID 489004); format: functional, cell-based; conditions: Homo sapiens;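 further: NF-kB luciferase reporter Jurkat cells stimulated with PMA plus ionomycin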
[26] = Shn3 3'UTR reporter inhibitors, dose response, cell-based, Clone20 osteoblasts, firefly luciferase, cherry-picked (AID 624132); format: functional;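 further: firefly luciferase luminescence from reporter carrying the Shn3 3'UTR in osteoblasts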
[27] = cytotoxicity in HEK-293T NF-kB-Luc cells, dose response, cytotoxicity control for B/T-cell NF-kB inhibitor project, cell-based, uHTS hits (AID 489019); format: functional;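 further: IC50 reflects cytotoxicity as loss of cell viability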

Sequence of Luciferin 4-monooxygenase (P08659 whole entry): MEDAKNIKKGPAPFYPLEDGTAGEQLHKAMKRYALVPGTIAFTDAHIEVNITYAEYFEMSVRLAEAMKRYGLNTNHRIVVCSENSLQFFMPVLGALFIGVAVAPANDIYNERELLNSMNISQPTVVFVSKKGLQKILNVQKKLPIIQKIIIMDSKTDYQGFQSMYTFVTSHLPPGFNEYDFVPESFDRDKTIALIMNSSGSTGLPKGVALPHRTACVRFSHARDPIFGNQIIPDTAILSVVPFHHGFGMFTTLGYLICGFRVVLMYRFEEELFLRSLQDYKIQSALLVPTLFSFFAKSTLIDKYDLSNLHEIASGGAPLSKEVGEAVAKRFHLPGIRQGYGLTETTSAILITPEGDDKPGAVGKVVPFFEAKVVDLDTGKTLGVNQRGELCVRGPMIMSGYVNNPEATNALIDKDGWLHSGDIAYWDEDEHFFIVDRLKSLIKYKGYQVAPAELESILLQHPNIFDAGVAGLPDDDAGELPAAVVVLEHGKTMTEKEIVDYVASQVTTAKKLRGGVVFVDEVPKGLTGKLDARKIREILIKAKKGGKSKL

For `Cc1ccnc(NC(=O)c2ccc(OCC3CCCO3)cc2)c1` (stereo not given), the EC50 [1] was 7.94 µM (active), the IC50 [2] was > 67.5 µM (inactive) and the AC50 (HEK293) was 2.57 µM (active). The EC50 [3] was 5.2 µM (active), the AC50 [4] was 26 µM (active) and the IC50 (cells [5]) was > 67.5 µM (inactive).
With `COc1ccccc1C(=O)NC(=O)Nc1cccc(Cl)c1` the EC50 (cells [6]) was > 67.5 µM (inactive) and the EC50 [7] was > 67.5 µM (inactive).
In the case of `N#C/C(=C\c1cc(O)c(O)c(O)c1)C(N)=O`, the IC50 [8] is reported as > 122 µM (inactive), the EC50 [9] is reported as > 150 µM (inconclusive) and the IC50 [10] is reported as > 122 µM (inactive). The EC50 [11] was 134 µM (active).
With `Cc1cc2nc(-c3cccnc3O)[nH]c2cc1C` the AC50 (INS1) was 3.23 µM (active), the AC50 [12] was 2.48 µM (active) and the EC50 (BJ [13]) was 8.47 µM (active). For the same molecule, the AC50 [14] was 8.69 µM (active), the EC50 [1] was 1.07 µM (active) and the EC50 (BJ [15]) was 4.58 µM (active). The EC50 (BJ [16]) was 13.3 µM (active), the EC50 [3] was 1.73 µM (active) and the AC50 [17] was 2.69 µM (active). For the same molecule, the AC50 [18] was 7.63 µM (active), the AC50 [19] was 6.43 µM (active) and the AC50 [20] was 7.17 µM (active). For the same molecule, the EC50 [21] was 4.3 µM (active).
In the case of `O=C(NC1CCCC1)c1cc(-c2ccccc2)on1`, the IC50 (Protein skinhead-1) is reported as > 100 µM (inactive), the EC50 [22] is reported as 0.355 µM (active) and the EC50 (H4) is reported as 3.13 µM (active). The AC50 [4] was 26 µM (active), the EC50 (cells [23]) was 330 µM (active) and the EC50 (cells [24]) was > 350 µM (not active).
For `CCn1c(C)cc(C(=O)COC(=O)c2ccccc2[N+](=O)[O-])c1C`, the AC50 [25] was < 0.135 µM (active), the IC50 (Jurkat) was < 0.16 µM (active) and the AC50 [26] was < 0.26 µM (active). The IC50 [27] was > 80 µM (inactive).

— ChEMBL document CHEMBL1201862, “PubChem BioAssay data set” (2004)
